From patent EP0234113A1, “2,3-Dihydro-1H-phenalene-2-amino compounds as anti-psychotic drugs” (THE UPJOHN COMPANY, priority 1985, dated 1987)
Several values for one entry are separate records, joined by “and”; a condition that tells them apart may be missing. Equal entries are not always repeated. Entries after “also recorded” stand apart in the source; their conditions may differ. Where two headings read alike, the source gives them in different places.

What was measured:
[1] = tested on: alpha-2; experiment: Alpha-2 ligand binding, rat brain homogenates; settings: 1μM, - indicates ligand was displaced
[2] = tested on: locomotor activity; experiment: Antagonism of apomorphine locomotor activity in rat; type: in vivo; settings: i.a. = inactive
From the text: (§1) Table 3. […] A. Behavioral effects in the rat. B. Behavioral effects in the monkey. C. Doses required to antagonize the indicated behavioral effects of amphetamine. D. Doses required to antagonize the indicated behavioral effects of apomorphine.

[3] = tested on: plasma prolactin; experiment: Plasma prolactin; type: in vivo; settings: cell marks this value (10), probably 10 mg/kg; Sprague-Dawley rat
[4] = tested on: dopamine neurons; experiment: Depression of dopamine neuron firing rates by the drug alone; type: in vivo, rats
Protocol: (§2) Table 2. Dopamine neuron firing rates were recorded according to published procedures and drugs were injected intravenously in chloral hydrate anesthetized rats. A. Ability of drugs to reverse the depression in firing rates of dopamine neurons by 1 to 2 mg/kg amphetamine. The maximum effect is the maximum amount of the amphetamine effect that was reversed, even when doses were increased beyond dose causing maximum effect. An effect greater than 100% indicates excitation of the neuron beyond its' control rate whereas an effect less than 100% indicates partial agonist effects. B. Depression of dopamine neurons by full agonist apomorphine and partial agonists TDHL, (-)PPP and U-64,273A. Maximum effect is maximum depression that could be realized even after increasing doses beyong the dose causing maximum effect. For both A and B, the ED50 is the dose causing 50% of the respective antagonistic (A) or agonist (B) effect.

[5] = tested on: body temperature; experiment: Hypothermia Test (effect on body temperature); type: in vivo, CF-1 male mice; settings: either test: hypothermic or apomorphine antagonism
Protocol: (§3) The Effect on Body Temperature (Hypothermia) Test and the Antagonism of Apomorphone-Induced Case Climbing (ACC), (Apomorphine Gnawing Test) are described on page 1398 of the publication, Journal of Medicinal Chemistry, Vol. 22, No. 11, pp. 1390-1398, in an article entitled "6-Aryl-4H-s-triazolo[4,3-a][1,4]benzodiazepines....Action" by J. B. Hester, Jr., et al.
For the tests here, the Hypothermia Test procedure was run as follows:
A group of four CF-1 male mice (18-22 g each) was injected intraperitoneally with the test compound prepared in 0.25 percent w/v methylcellulose in water solution. After 45 min, abdominal temperature of each mouse was measured using a thermister probe. A control group of four mice was treated with vehicle only and the temperature of the control group was taken in a similar manner. A compound was considered to have a significant effect on body temperature if the mean temperature in the test compound treated group deviated more than 3.5°C from the mean temperature of the parallel control group. Stimulants tend to elevate temperatures; depressants tend to lower body temperature.

[6] = tested on: Dopamine (3H-spiperone); experiment: Receptor Binding Assay with 3H-spiperone (Dopamine Binding Assay), rat brain homogenate; settings: 1μM; rat brain homogenates; - indicates ligand was displaced
Protocol: The Receptor Binding Assay test for antipsychotic acitvity, was conducted as follows:
A rat brain homogenate was prepared (1) by homogenizing a whole rat brain minus the cerebellum in 10 ml of 0.05M THAM-HC1, pH 7.4, using a Polytron at a setting of 7 for 30 sec. and centrifuging at 15,000xg for 10 min. The supernatant was discarded, the pellet resuspended in 10 ml of buffer using the Polytron for 10 sec., and the centrifugation repeated. The pellet was resuspended and diluted to 100 times the original tissue weight with buffer. Then 100 ml of the homogenate was diluted to 400 ml with buffer.
The test drug was weighed out in a scintillation vial in a 1-5 mg ammount. They were dissolved by adding 0.5 ml of N-N-dimethylformamide of (DMF) and then 0.05 ml of 1M acetic acid, and vortexed to solubilize the drug. Then 10 ml of deionized and filtered water was added to the required volume. All compounds were tested at a single concentration of 1 uM.
Samples were prepared for incubation using an ^3H-spiperone (antipsychotic).
Incubation was conducted at 30°C for 30 min. on a shaking water bath. Every 30 sec., 24 tubes were filled with 1 ml of homogenate and put into the bath (this is done every 3 min. until all tubes are in the bath). Upon completion of the incubation procedure, the samples are filtered and rinsed.
The punched filters are dropped into vials, which are in turn filled with ACS liquid scintillation fluid and capped and counted in a liquid scintillation counter. Counting data is recorded and analyzed.
Results are expressed as percent decrease from control.

[7] = tested on: Emesis; experiment: Antagonism of apomorphine emesis; type: in vivo
From the text: as §1

[8] = tested on: lethal dose of d-amphetamine; experiment: Antagonism of amphetamine toxicity; type: in vivo
From the text: as §1

[9] = tested on: 6-OH DA Turning; experiment: Antagonism of amphetamine: 6-OH DA turning; type: in vivo; settings: i.a. = inactive
From the text: as §1

[10] = tested on: muscarinic; experiment: Muscarinic ligand binding, rat brain homogenates; settings: 1μM, - indicates ligand was displaced
[11] = tested on: dopamine metabolites HVA, DOPAC, and 3MT; experiment: Dopamine metabolites in rat brain; type: in vivo; settings: percentage of control; 3 mg/kg of chlorpromazine, 30 mg/kg clozapine or U-64,273A; Sprague-Dawley rat
[12] = tested on: locomotor stimulation; experiment: Locomotor stimulation in reserpinized mice, drug given by itself; type: in vivo
From the text: Consistant with its having a minor amount of agonist activity, the overall behavioral effects of U-64,273A conform to that of a weak DA antagonist (Table 3). […] When given by itself, U-64,273A affected locomotor activities in rodents in a way resembling both DA auto-receptor and postsynaptic receptor agonists.

[13] = tested on: Discrimination; experiment: Antagonism of apomorphine discrimination; type: in vivo; settings: (p) = partial activity
From the text: as §1

[14] = tested on: locomotor activity; experiment: Antagonism of amphetamine: locomotor activity; type: in vivo; settings: i.a. = inactive
From the text: as §1

[15] = tested on: dopamine neurons; experiment: Reversal of amphetamine depression of dopamine neuron firing rates; type: in vivo, rats
Protocol: as §2, with “An effect greater than 100% indicates excitation of the neuron beyond its' control rate whereas an effect less than 100% indicates partial agonist effects.” left out

[16] = tested on: Locomotor activity; experiment: Antagonism of apomorphine locomotor activity in reserpinized mouse; type: in vivo
From the text: as §1

[17] = tested on: Apomorphone-Induced Case Climbing; experiment: Apomorphine antagonism (Apomorphine gnawing test; apomorphine-induced cage climbing); type: in vivo, Mouse; settings: mouse
From the text: as §3, §1

[18] = tested on: LSD; experiment: LSD ligand binding, rat brain homogenates; settings: 1μM, - indicates ligand was displaced
[19] = tested on: Catalepsy; experiment: Catalepsy; settings: rat; i.a. = inactive
From the text: as §1

[20] = tested on: Conditioned Avoidance; experiment: Conditioned avoidance; type: in vivo; settings: rat; (p) = partial activity, i.a. = inactive
From the text: as §1

[21] = tested on: Serotonin metabolites; experiment: Serotonin metabolites in rat brain; type: in vivo, Sprague-Dawley rat; settings: percentage of control; 1 mg/kg haloperidol, 10 mg/kg of clozapine, 30 mg/kg U-64,273A
[22] = tested on: alpha-1; experiment: Alpha-1 ligand binding, rat brain homogenates; settings: 1μM, i.a. = inactive
[23] = tested on: Stereotypy; experiment: Antagonism of apomorphine stereotypy; type: in vivo; settings: i.a. = inactive, listed as U-64273A
From the text: as §1

[24] = dopamine neuron firing, Table 2

CNC1Cc2cccc3cccc(c23)C1 [U-64,273A, 2,3-dihydro-N-mono-methyl-lH-phenalen-2-amine]
alpha-2, percentage of ligand displaced [1]: -37.5% | Locomotor activity, rat, dose required to antagonize apomorphine [2]: i.a. | Plasma Prolactin [3]: 1% | ED50 ([4]; Rattus norvegicus, Neuron, iv): 0.07 mg/kg | Emax ([4]; Rattus norvegicus, Neuron, iv, read-out: MAXIMUM EFFECT (per cent decrease)): 30% | agonist share [4, 24]: 30% | inhibition of DA neuronal firing when given alone (in words) ([4]; rat, in vivo): weakly inhibit | active in either the hypothermic or the apomorphine antogonism test [5]: active | spiperone, percentage of ligand displaced [6]: relatively weak and -46.2% | Dog Emesis, dose required to antagonize apomorphine [7]: antagonized apomorphine | Mouse Toxicity, dose required to antagonize amphetamine [8]: did not protect mice | 6-OH DA Turning, rat, dose required to antagonize amphetamine [9]: antagonized d-amphetamine | muscarinic, percentage of ligand displaced [10]: -11.7% | 3MT [11]: 50% | DOPAC [11]: 80% | locomotor stimulation in reserpinized mice [12]: no locomotor stimulation | Monkey Discrimination, dose required to antagonize apomorphine [13]: antagonized apomorphine | RAT locomotor activity, dose required to antagonize amphetamine [14]: i.a. | ED50 ([15]; Rattus norvegicus, Neuron, iv): 0.005 mg/kg | Emax ([15]; Rattus norvegicus, Neuron, iv, read-out: MAXIMUM EFFECT (per cent reversal)): 69% | antagonist share [15, 24]: 70% | reversal of amphetamine's depression of DA neuronal firing (in words) ([15]; intravenous, anesthetized rats): potent in reversing the effect of d-amphetamine on nigral DA neuronal firing; also recorded: not quite complete | Locomotor activity, reserpinized mouse, 3 mg/kg (antag. of apomorphine) [16]: antagonized apomorphine | Locomotor activity, reserpinized mouse, 3 mg/kg (antag. of apomorphine) ([16]; listed as U-64273A): 47% antag. | Cage Climbing Mouse, dose required to antagonize apomorphine [17]: antagonized apomorphine | LSD, percentage of ligand displaced [18]: -67.3% | Catalepsy, active dose [19]: i.a. | Conditioned Avoidance, active dose [20]: suppressed conditioned avoidance behavior of rats with a limited efficacy | 5HIAA [21]: 76% | 5HT [21]: 128% | 5HTP [21]: 37% | alpha-1, percentage of ligand displaced [22]: i.a. | Rat Stereotypy, dose required to antagonize apomorphine [23]: i.a.
